From patent publication US20120040977A1, “INHIBITORS OF HCV NS5A” (PRESIDIO PHARMACEUTICALS, INC., priority 2009, published 2012) come the findings set out here.

The assay relates to HCV genotype 1b replicon. Nature of the assay: HCV replicon assay (HCV 1b_Huh-Luc/Neo-ET cell line, luciferase readout). It is filed as cell-based. To be noted: Hepatitis C virus; bicistronic genotype 1b replicon in Huh 7 cells, 72 h incubation, luciferase enzyme activity; read-out: Inhibition of HCV genotype 1b. How it is done:
Biological activity of the compounds of the invention was determined using an HCV replicon assay. The HCV 1b_Huh-Luc/Neo-ET cell line persistently expressing a bicistronic genotype 1b replicon in Huh 7 cells was obtained from ReBLikon GMBH. This cell line was used to test compound inhibition using luciferase enzyme activity readout as a measurement of compound inhibition of replicon levels.
On Day 1 (the day after plating cells), each compound is added in triplicate to the cells. Plates are incubated for 72 h prior to determining luciferase levels. Enzyme activity was measured using a Bright-Glo Kit (cat. number E2620) manufactured by Promega Corporation. The following equation was used to generate a percent control value for each compound.
% Control=(Average Compound Value/Average Control)*100
The EC50 value was determined using GraphPad Prism and the following equation:
Y=Bottom+(Top−Bottom)/(1+10̂((LogIC50−X)*HillSlope))
EC50 values of compounds are determined several times in the replicon assay. […]
As for `CC(C)[C@@H](NC(=O)OC(C)(C)C)C(=O)N1CCOC[C@H]1C(=O)Nc1ccc(-c2ccc(-c3cnc([C@@H]4COCCN4C(=O)[C@H](NC(=O)OC(C)(C)C)C(C)C)[nH]3)cc2)cc1` [Compound 18], the EC50 was 10 to 999 nM.

Regarding `C[C@H](NC(=O)[C@@H]1CCCN1C(=O)[C@H](NC(=O)N1CCOCC1)c1ccccc1)c1ccc(-c2ccc(-c3cnc([C@@H]4CCCN4C(=O)[C@H](NC(=O)N4CCOCC4)c4ccccc4)[nH]3)cc2)cc1` [Compound 38], the EC50 lay within 1 to 9.9 nM.

In the case of `COC(=O)N[C@H](C(=O)N1CCC[C@H]1c1nc2c([nH]1)-c1ccc(-c3ccc(NC(=O)[C@@H]4CCCN4C(=O)[C@H](NC(=O)OC)c4ccccc4)cc3)cc1CC2)C(C)C` [Compound 117], the EC50 was less than 1 nM.

Take `O=C(N[C@@H](C(=O)N1CCOC[C@H]1C(=O)Nc1ccc(-c2ccc(-c3cnc([C@@H]4CCCN4C(=O)[C@H](NC(=O)C4CC4)c4ccccc4)[nH]3)cc2)cc1)c1ccccc1)C1CC1` [Compound 3]: the EC50 was less than 1 nM.

As to `COC(=O)N[C@H](C(=O)N1CCC[C@H]1CNC(=O)c1ccc(-c2ccc3nc([C@@H]4CCCN4C(=O)[C@@H](NC(=O)OC)C(C)C)[nH]c3c2)cn1)C(C)C` [Compound 115], the EC50 was in the range of 10 to 999 nM.

As to `COC(=O)N[C@H](C(=O)N1CCC[C@H]1c1ncc(-c2ccc(Sc3cccc(-c4cnc([C@@H]5CCCN5C(=O)[C@@H](NC(=O)OC)C(C)C)[nH]4)c3)cc2)[nH]1)C(C)C` [Compound 69], the EC50 was less than 1 nM.

Consider `COC(=O)N[C@H](C(=O)N1CCC[C@H]1CNC(=O)c1ccc(-c2ccc(-c3cnc([C@@H]4CCCN4C(=O)[C@@H](NC(=O)OC)C(C)C)[nH]3)cn2)cc1)C(C)C` [Compound 78], for which the EC50 was less than 1 nM.

With `COC(=O)N[C@@H](C(=O)N1CCC[C@H]1c1ncc(-c2ccc(-c3ccc(C(=O)NC[C@@H]4CCCN4C(=O)[C@@H](c4ccccc4)N4CCOCC4)cc3)cc2)[nH]1)c1ccccc1` [Compound 63], the EC50 was less than 1 nM.

For `COC(=O)N[C@@H](C(=O)N1CCC[C@H]1CNC(=O)c1ccc(-c2ccc(-c3cnc([C@@H]4CCCN4C(=O)[C@H](NC(=O)N4CCN(C)CC4)c4ccccc4)[nH]3)cc2)cc1)c1ccccc1` [Compound 68], the EC50 was less than 1 nM.

As for `COC(=O)N[C@H](C(=O)N1CCC[C@H]1CNC(=O)c1ccc(-c2ccc3c(c2)CCc2nc([C@@H]4CCCN4C(=O)[C@@H](NC(=O)OC)C(C)C)[nH]c2-3)cc1)C(C)C` [Compound 84], the EC50 was less than 1 nM.

Take `CN1CCN(C(=O)N[C@@H](C(=O)N2CCC[C@H]2COc2ccc(-c3ccc(-c4cnc([C@@H]5CCCN5C(=O)[C@H](NC(=O)N5CCN(C)CC5)c5ccccc5)[nH]4)cc3)cc2)c2ccccc2)CC1` [Compound 35]: the EC50 was 1 to 9.9 nM.

Take `COC(=O)N[C@@H](C)C(=O)N1CCC[C@H]1C(=O)Nc1ccc(-c2ccc(-c3cnc([C@@H]4CCCN4C(=O)[C@H](C)NC(=O)OC)[nH]3)cc2)cc1` [Compound 108]: the EC50 was 10 to 999 nM.

Turning to `COC(=O)N[C@H](C(=O)N1CCC[C@H]1C(=O)NCc1ccc(-c2ccc3nc([C@@H]4CCCN4C(=O)[C@@H](NC(=O)OC)C(C)C)[nH]c3c2)cn1)C(C)C` [Compound 121], the EC50 lay within 10 to 999 nM.

In the case of `COC(=O)N[C@H](C(=O)N1CCC[C@H]1C(=O)NCc1ccc(-c2ccc(-c3cnc([C@@H]4CCCN4C(=O)[C@@H](NC(=O)OC)C(C)C)[nH]3)cn2)cc1)C(C)C` [Compound 116], the EC50 was in the range of 10 to 999 nM.

As to `CC(C)(C)OC(=O)N1CCOCC1C(=O)Nc1ccc(-c2ccc(-c3cnc([C@@H]4COCCN4C(=O)OC(C)(C)C)[nH]3)cc2)cc1` (stereo partly drawn) [Compound 4], the EC50 was greater than 1000 nM.

Consider `COC(=O)N[C@@H](C(=O)N1CCC[C@H]1C(=O)NCc1ccc(-c2ccc(-c3cnc([C@@H]4CCCN4C(=O)[C@H](NC(=O)OC)c4ccccc4)[nH]3)cn2)cc1)c1ccccc1` [Compound 118], for which the EC50 was less than 1 nM.

Turning to `COC(=O)N[C@H](C(=O)N1CCC[C@H]1C(=O)Nc1ccc(-c2ccc3c(c2)CCc2nc([C@@H]4CCCN4C(=O)[C@@H](NC(=O)OC)C(C)C)[nH]c2-3)cc1)C(C)C` [Compound 112], the EC50 was 1 to 9.9 nM.

As for `CC(C)[C@@H](NC(=O)OC(C)(C)C)C(=O)N1CCC[C@H]1C(=O)Nc1ccc(-c2ccc(-c3cnc([C@@H]4COCCN4C(=O)[C@H](NC(=O)OC(C)(C)C)C(C)C)[nH]3)cc2)cc1` [Compound 10], the EC50 was in the range of 10 to 999 nM.

As to `COC(=O)N[C@H](C(=O)N1CCC[C@H]1C(=O)N[C@H](C)c1ccc(-c2ccc(-c3cnc([C@@H]4CCCN4C(=O)[C@@H](NC(=O)OC)C4CCOCC4)[nH]3)cc2)cc1)C1CCOCC1` [Compound 103], the EC50 fell in the range of 10 to 999 nM.

Consider `COC(=O)N[C@@H](C(=O)N1CCC[C@H]1c1ncc(-c2ccc(-c3ccc(NC(=O)[C@@H]4CCCN4C(=O)[C@@H](c4ccccc4)N(C)C)cc3)cc2)[nH]1)c1ccccc1` [Compound 60], for which the EC50 was less than 1 nM.

Regarding `COC(=O)N[C@H](C(=O)N1CCC[C@H]1C(=O)Nc1ccc(-c2ccc(-c3cnc([C@@H]4CCCN4C(=O)[C@@H](NC(=O)OC)C4CCOCC4)[nH]3)cc2)cc1)C1CCOCC1` [Compound 110], the EC50 lay within 1 to 9.9 nM.

Consider `COC(=O)N[C@H](C(=O)N1CCC[C@H]1C(=O)Nc1ccc(-c2ccc3nc([C@@H]4CCCN4C(=O)[C@@H](NC(=O)OC)C(C)C)[nH]c3c2)cc1)C(C)C` [Compound 73], for which the EC50 lay within 1 to 9.9 nM.

As for `COC(=O)N[C@@H](C(=O)N1CCC[C@H]1C(=O)NCc1ccc(-c2ccc3nc([C@@H]4CCCN4C(=O)[C@H](NC(=O)OC)c4ccccc4)[nH]c3c2)cc1)c1ccccc1` [Compound 111], the EC50 is less than 1 nM.

`C[C@H](NC(=O)[C@@H]1CCCN1C(=O)[C@H](NC(=O)C1CC1)c1ccccc1)c1ccc(-c2ccc(-c3cnc([C@@H]4CCCN4C(=O)[C@H](NC(=O)C4CC4)c4ccccc4)[nH]3)cc2)cc1` [Compound 37]: the EC50 was less than 1 nM.

Take `[2H]C([2H])([2H])C([2H])(C([2H])([2H])[2H])C([2H])(NC(=O)OC)C(=O)N1CCC[C@H]1c1ncc(-c2ccc(-c3ccc(CNC(=O)[C@@H]4CCCN4C(=O)[C@@]([2H])(NC(=O)OC)C([2H])(C([2H])([2H])[2H])C([2H])([2H])[2H])cc3)cc2)[nH]1` (stereo partly drawn) [Compound 82]: the EC50 lay within 1 to 9.9 nM.

As for `CC(C)(C)OC(=O)N1CCOCC1C(=O)Nc1ccc(-c2ccc(-c3cnc([C@@H]4CCCN4C(=O)OC(C)(C)C)[nH]3)cc2)cc1` (stereo partly drawn) [Compound 6], the EC50 lay in the range of 10 to 999 nM.

As for `CC(C)(C)OC(=O)N[C@@H](C(=O)N1CCC[C@H]1CNC(=O)c1ccc(-c2ccc(-c3cnc([C@@H]4CCCN4C(=O)[C@H](NC(=O)OC(C)(C)C)c4ccccc4)[nH]3)cc2)cc1)c1ccccc1` [Compound 49], the EC50 is less than 1 nM.

Turning to `O=C(Nc1ccc(-c2ccc(-c3cnc([C@@H]4COCCN4C(=O)[C@H](NC(=O)N4CCOCC4)c4ccccc4)[nH]3)cc2)cc1)[C@@H]1COCCN1C(=O)[C@H](NC(=O)N1CCOCC1)c1ccccc1` [Compound 2], the EC50 lay within 1 to 9.9 nM.

`[2H]C([2H])([2H])C([2H])(C([2H])([2H])[2H])C([2H])(NC(=O)OC)C(=O)N1CCC[C@H]1c1ncc(-c2ccc(-c3ccc(NC(=O)[C@@H]4CCCN4C(=O)[C@@]([2H])(NC(=O)OC)C([2H])(C([2H])([2H])[2H])C([2H])([2H])[2H])cc3)cc2)[nH]1` (stereo partly drawn) [Compound 77]: the EC50 was less than 1 nM.

For `CN1CCN(C(=O)N[C@@H](C(=O)N2CCC[C@H]2C(=O)NCc2ccc(-c3ccc(-c4cnc([C@@H]5CCCN5C(=O)[C@H](NC(=O)N5CCN(C)CC5)c5ccccc5)[nH]4)cc3)cc2)c2ccccc2)CC1` [Compound 45], the EC50 fell in the range of 1 to 9.9 nM.

On to `C#CC[C@H](NC(=O)OC)C(=O)N1CCC[C@H]1C(=O)NCc1ccc(-c2ccc(-c3cnc([C@@H]4CCCN4C(=O)[C@H](CC#C)NC(=O)OC)[nH]3)cc2)cc1` [Compound 81], for which the EC50 was in the range of 10 to 999 nM.

Consider `O=C(N[C@@H](C(=O)N1CCC[C@H]1COc1ccc(-c2ccc(-c3cnc([C@@H]4CCCN4C(=O)[C@H](NC(=O)C4CC4)c4ccccc4)[nH]3)cc2)cc1)c1ccccc1)C1CC1` [Compound 31], for which the EC50 is less than 1 nM.

In the case of `COC(=O)N[C@H](C(=O)N1CCC[C@H]1CNC(=O)c1ccc(-c2ccc(-c3cnc([C@@H]4CCCN4C(=O)[C@@H](NC(=O)OC)C4CCOCC4)[nH]3)cc2)cc1)C1CCOCC1` [Compound 123], the EC50 was 1 to 9.9 nM.

For `CC(C)(C)OC(=O)N[C@@H](C(=O)N1CCOC[C@H]1C(=O)Nc1ccc(-c2ccc(-c3cnc([C@@H]4CCCN4C(=O)[C@H](NC(=O)OC(C)(C)C)c4ccccc4)[nH]3)cc2)cc1)c1ccccc1` [Compound 21], the EC50 is less than 1 nM.

`COC(=O)N[C@H](C(=O)N1CCC[C@H]1C(=O)N[C@H](C)c1ccc(-c2ccc(-c3cnc([C@@H]4CCCN4C(=O)[C@@H](NC(=O)OC)C(C)C)[nH]3)cc2)cc1)C(C)C` [Compound 97]: the EC50 was in the range of 1 to 9.9 nM.

Turning to `COC(=O)N[C@H](C(=O)N1CCC[C@H]1C(=O)NCc1ccc(-c2ccc(-c3cnc([C@@H]4CCCN4C(=O)[C@@H](NC(=O)OC)C(C)C)[nH]3)cc2)cc1)C(C)C` [Compound 105], the EC50 lay within 10 to 999 nM.

With `COC(=O)N[C@@H](C)C(=O)N1CCC[C@H]1C(=O)NCc1ccc(-c2ccc(-c3cnc([C@@H]4CCCN4C(=O)[C@H](C)NC(=O)OC)[nH]3)cc2)cc1` [Compound 104], the EC50 is 10 to 999 nM.

As to `COC(=O)N[C@H](C(=O)N1CCC[C@H]1CNC(=O)c1ccc(-c2ccc(-c3cnc([C@@H]4CCCN4C(=O)[C@@H](NC(=O)OC)C(C)C)[nH]3)cc2)cn1)C(C)C` [Compound 83], the EC50 was in the range of 1 to 9.9 nM.

For `C[C@@H](NC(=O)OC(C)(C)C)C(=O)N1CCC[C@H]1c1ncc(-c2ccc(Oc3ccc(-c4cnc([C@@H]5CCCN5C(=O)[C@@H](C)NC(=O)OC(C)(C)C)[nH]4)cc3)cc2)[nH]1` [Compound 47], the EC50 lay in the range of 1 to 9.9 nM.
